Reference: patent publication US10039761B2, “Co-crystals and pharmaceutical compositions comprising the same” (Vertex Pharmaceuticals Incorporated, priority 2013, dated 2018)

Legend:
[1] = test system: ST-02-0004 primary GEJ tumor xenograft; experiment: ST-02-0004 primary GEJ tumor xenograft efficacy with focused IR; type: in vivo; details: for % T/C (Day 45): 5 mg/kg paclitaxel, 25 mg/kg carboplatin q7dx3 (−[…])
Protocol: The in vivo activities of Compounds (1) and (2) were compared in combination with focused beam IR in a primary gastric cancer subcutaneous xenograft model. In the ST 02 0004 model, focused IR was administered on three consecutive days alone and in combination with Compound (1) or Compound (2).
The anti-tumor activity of Compound (2) in combination with focused-beam IR and the standard of care agents, paclitaxel and carboplatin, was also evaluated in the ST 02 0004 model. Treatment with paclitaxel, carboplatin, and IR was administered once per week for three weeks alone or in combination with Compound (2).
(§1) In Tables 14 and 15, for example, PO bid (0, 4 h) indicates Compound (2) is administered twice (bid) at time point 0 and then 4 hours after; IR (0.25 h) qdx3 indicates radiation is administered 15 minutes (0.25 h) after the administration of Compound (2) (0 h), and once a day for 3 days (qdx3); q7dx2 indicates once a week for two weeks; qod indicates every other day twice (e.g., Day 1 and Day 3); and paclitaxel q7dx3 (−0.25 h), carboplatin q7dx3 (−0.25 h) indicates administration of paclitaxel and carboplatin 15 minutes prior to the administration of Compound (2), followed by additional administration of Compound (2) after 4 hours after the first administration of Compound (2).

[2] = test system: primary human tumors; experiment: Primary tumor chemosensitivity assay (TCA), Cell Titer-Glo, Bliss; type: cell-based; details: Compound (2) with bleomycin; gastric, pancreatic tumors
Protocol: Primary human tumors tested in vitro may provide a better indicator of efficacy of DNA PK inhibition than immortalized cancer cell lines due to their increased heterogeneity and closer proximity to the patient tumor from which they were derived. […] Dissociated cells from mouse-passaged tumors were cultured for 6 days after combination exposure and then assessed for viability using the Cell Titer-Glo assay. The Bliss Additivity statistical model was used to determine the degree of synergy, additivity, or antagonism of each combination treatment.

[3] = Blood exposure in OD26749 bridging study; type: in vivo, nude mice; details: nude, mouse, whole blood; 100 mg/kg PO bid (0 and 4 h) combination groups with 2 Gy whole body IR
[4] = Body weight in OE-19 xenograft studies; type: in vivo; details: PO 100 mg/kg bid (0, 4 h) q7dx2, 2 Gy IR q7dx2 ([…]); Day 7
Protocol: The OE-19 cell line xenograft model was used to evaluate the efficacy of Compounds (1) and (2) alone and in combination with IR. Two cycles of treatment were administered (Day 0 and Day 7) as performed in the OD26749 model above.

[5] = Body weight in OD26749 xenograft studies; type: in vivo, nude mice; details: bridging study; Compound (2) PO 50 mg/kg bid (0, 4 h), 2 Gy ([…]) qdx3; Day 1
[6] = test system: LU-01-0030 primary NSCLC subcutaneous xenograft; experiment: LU-01-0030 primary NSCLC xenograft efficacy with focused IR; type: in vivo, mice
Protocol: (§2) The in vivo efficacies of Compounds (1) and (2) were evaluated alone and in combination with three consecutive days of focused IR in the primary LU-01-0030 NSCLC subcutaneous xenograft model. The dose-dependent anti-tumor activity of Compound (2) alone and in combination with focused beam IR was evaluated in the LU-01-0030 model.
as §1

[7] = Body weight in LU-01-0030 xenograft studies; type: in vivo, mice; details: Day 34 study
Protocol: as §2, with “LU-01-0030 model. […] Mice in the combination treatment groups were monitored (without treatment) for up to 90 days as some mice had no evidence of tumor burden.” for “LU-01-0030 model.”

[8] = test system: OD26749 primary NSCLC xenograft; experiment: OD26749 primary NSCLC xenograft efficacy with whole body IR; type: in vivo, nude mice; details: bridging study; Compound (2) PO 50 mg/kg bid (0, 4 h), 2 Gy ([…]) qdx3
Protocol: The in vivo efficacies of Compounds (1) and (2) in combination with whole body IR were examined in the OD26749 primary NSCLC (non-small cell lung cancer) and the OE-19 GEJ cell line xenograft models. In these studies, Compounds (1) and (2) were formulated with 16% captisol/1% PVP/1% HPMC E5 pH2.
The in vivo efficacy of Compound (1) was evaluated in the primary OD26749 NSCLC subcutaneous xenograft model. […] […] Compound (1) was administered PO (tid at 0, 3, and 7 h) at 100 mg/kg alone or with a single 2 Gy dose of whole body IR at 3.25 h. […] Compound (1) in combination with 2 Gy whole body IR induced significant tumor regression (% T/Ti of −75; P<0.01) compared to IR alone.
The efficacies of Compounds (1) and (2) in combination with whole body IR (2 Gy) were evaluated in the OD26749 primary NSCLC xenograft model at a Compound ([…]) and Compound (2) dose levels of 50 mg/kg and 100 mg/kg PO bid (0 and 4 h). Two cycles of whole body IR (2 Gy) were given 15 min after the first compound administration (0.25 hour). Control animals were administered vehicle PO bid (0 and 4 h). […]
as §1

AUC [3]: 58.2 µg·h/mL
Compound: [2H]c1nc(C)nc([2H])c1-c1cc(NC[C@@H](C)c2cccc3c(C(=O)NC)ccnc23)ncn1 [Compound (2), (S)-N-methyl-8-(1-((2′-methyl-4′,6′-dideutero-[4,5′-bipyrimidin]-6-yl)amino)propan-2-yl)quinoline-4-carboxamide]
% T/C (Day 45) ([1]; 2 Gy IR qdx3 ([…]), Compound (2) PO 25 mg/kg bid (0, 4 h) qdx3): 11.1% | % T/C (Day 45) ([1]; 2 Gy IR qdx3 ([…]), Compound (2) PO 50 mg/kg bid (0, 4 h) qdx3): 2.5% | % T/C (Day 45) ([1]; Compound (2) PO 50 mg/kg bid (0, 4 h) qdx3, no IR): 95.4% | % T/C (Day 34) ([1]; Compound (2) PO 25 mg/kg bid (0, 4 h) qdx3, 2 Gy IR qdx3 ([…])): 17.4% | % T/C (Day 34) ([1]; Compound (2) PO 100 mg/kg bid (0, 4 h) qdx3, 2 Gy IR qdx3 ([…])): 9.2% | % T/C (Day 34) ([1]; Compound (2) PO 100 mg/kg bid (0, 4 h) qdx3, no IR): 67.6% | tumors additive or synergistic / tumors tested [2]: 20/20 | tumors strongly synergistic / tumors tested [2]: 3/20 | Max. body wt loss (%) [4]: −6.50% | Max. body wt loss (%) [5]: −2.10% | % T/Ti (Day 34) ([6]; PO 25 mg/kg bid (0, 4 h) qdx3, 2 Gy IR ([…]) qdx3): −67.1% | % T/Ti (Day 34) ([6]; PO 50 mg/kg bid (0, 4 h) qdx3, 2 Gy IR ([…]) qdx3): −96.3% | % T/C (Day 34) ([6]; PO 50 mg/kg bid (0, 4 h) qdx3, no IR): 98.3% | % T/Ti (Day 34) ([6]; PO 50 mg/kg qdx3, 2 Gy IR ([…]) qdx3): −96.9% | Max. body wt loss (%) ([7]; PO 25 mg/kg bid (0, 4 h) qdx3, 2 Gy IR ([…]) qdx3, Day 3): −6.59% | Max. body wt loss (%) ([7]; PO 25 mg/kg qdx3, 2 Gy IR ([…]) qdx3, Day 1): −4.62% | Max. body wt loss (%) ([7]; PO 50 mg/kg bid (0, 4 h) qdx3, 2 Gy IR ([…]) qdx3, Day 3): −6.93% | Max. body wt loss (%) ([7]; PO 50 mg/kg bid (0, 4 h) qdx3, no IR, Day 9): −1.11% | Max. body wt loss (%) ([7]; PO 50 mg/kg qdx3, 2 Gy IR ([…]) qdx3, Day 3): −4.66% | % T/C (Day 22) [8]: 27.2%
